# Test results as given in article PMC3130785, “Small Compound 6-O-Angeloylplenolin Induces Mitotic Arrest and Exhibits Therapeutic Potentials in Multiple Myeloma” (PLoS ONE, 2011).
# Assays:
# pAkt = assay: Western blotting, IGF-I stimulation; assay type: cell-based, human; conditions: MM.1S; 6-OAP 7.5 µM for 12 h; IGF-I 50 ng/ml
# Procedure: (§1) Cell pellets were lysed in RIPA buffer containing 50 mM Tris pH 8.0, 150 mM NaCl, 0.1% SDS, 0.5% deoxycholate, 1% NP-40, 1 mM DTT, 1 mM NaF, 1 mM sodium vanadate, and protease inhibitors cocktail (Sigma). For immunoprecipitations, cells were lysed on ice for 15 minutes in RIPA buffer. Lysates were centrifuged. The supernatant was incubated with indicated antibodies overnight, after which protein A/G Plus beads (Santa Cruz Biotechnology) were added and incubated for 3 h. The beads were washed 4 times in RIPA buffer. Then the beads were resuspended in 1× sample buffer and boiled for 3 min. Protein extracts were quantitated and loaded on 8% to 12% sodium dodecyl sulfate polyacrylamide gel, electrophoresed, and transferred to a nitrocellulose membrane (Whatman). The membrane was incubated with primary antibody, washed, and incubated with horseradish peroxidase (HRP)–conjugated secondary antibody (Pierce). Detection was performed by using a chemiluminescent western detection kit (Cell Signaling). […]
# (§2) Figure 5 6-OAP overcomes the protective effects of IL-6, IGF-I and BMSCs on MM cells. […] Cell proliferation was assessed by MTT assay. […] Cell proliferation was assessed by MTT assay. *p<.01,** p<.05. […]
# PDK-1 = assay: Western blotting, IGF-I stimulation; assay type: cell-based, human; conditions: MM.1S; IGF-I 50 ng/ml
# Procedure: as §1, §2
# [1] = test system: U266, RPMI 8226, MM.1S, and MM.1R cells; assay: MTT assay, MM cell lines together; assay type: cell-based; conditions: Homo sapiens, range over the four MM cell lines
# Procedure: U266, RPMI 8226 cells (1×10^4), primary CD138+ cells, PBMCs (5×10^4), and BMSCs (1×10^4) were cultured in 96-well dishes and incubated without or with 6-OAP at indicated concentration for 48 h. MM.1S and MM.1R cells (2×10^4) were seeded into 96-well dishes and pre-cultured for 24 h, then treated with 6-OAP for 48 h. Cell proliferation was determined by MTT assay. Cell viability was estimated by trypan blue dye exclusion.
# [2] = test system: ubiquitinated cyclin B1 (Ub-cyclin B1); assay: Immunoprecipitation and Western blotting; assay type: cell-based, human; conditions: U266 and MM.1S; 24 h
# Procedure: as §1
# (§3) Figure 3 6-OAP accumulates cyclin B1 which is required for mitotic arrest. […] After co-incubation with 6-OAP for 18 h, the cells were then harvested and detected by Leica DMI 400B microscope (D), or analyzed by flow cytometry for the cell cycle distribution (E). To evaluate cell growth, the cells were treated with 6-OAP for indicated time points and analyzed by trypan blue exclusion assay (F). […]
# Mad2 bound Cdc20 = assay: Immunoprecipitation and Western blotting; assay type: cell-based, human; conditions: U266 and MM.1S cells; 24 h
# Procedure: as §1, §3
compound,measurement,setting,value
"CC=C(C)C(=O)OC1C2C(CC(C)C3C=CC(=O)C31C)OC(=O)C2C (centres unmarked) [6-OAP, 6-O-angeloylplenolin]",IGF-I-induced pAkt expression,pAkt,inhibited
same,phosphorylation of PDK-1,PDK-1,not affected
same,IC50,[1],3.5 to 9.2 µM
same,ubiquitinated cyclin B1,[2],markedly decreased
same,Mad2-Cdc20 binding,Mad2 bound Cdc20,enhanced the binding affinity
